Measured values reported in PubChem BioAssay (NCI).
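Exposure lasted 48 hours, with cells grown in 96-well plates and compounds tested at five concentrations. The concentration for 50% growth inhibition is given as GI50. At the TGI there is no net growth.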

What was measured:
Experiment in all cases: NCI tumour cell line growth inhibition, 48 h
786-0 renal = system: 786-0 renal
A549 NSCLC = system: A549 NSCLC
ACHN renal = system: ACHN renal
CCRF-CEM leukemia = system: CCRF-CEM leukemia
COLO 205 colon = system: COLO 205 colon
DLD-1 colon = system: DLD-1 colon
DMS 273 small cell lung = system: DMS 273 small cell lung
EKVX NSCLC = system: EKVX NSCLC
HCC-2998 colon = system: HCC-2998 colon
HCT-116 colon = system: HCT-116 colon
HCT-15 colon = system: HCT-15 colon
HL-60(TB) leukemia = system: HL-60(TB) leukemia
HOP-18 NSCLC = system: HOP-18 NSCLC
HOP-62 NSCLC = system: HOP-62 NSCLC
HOP-92 NSCLC = system: HOP-92 NSCLC
HT29 colon = system: HT29 colon
IGROV1 ovarian = system: IGROV1 ovarian
K-562 leukemia = system: K-562 leukemia
KM12 colon = system: KM12 colon
KM20L2 colon = system: KM20L2 colon
LOX IMVI melanoma = system: LOX IMVI melanoma
LXFL 529 NSCLC = system: LXFL 529 NSCLC
M14 melanoma = system: M14 melanoma
M19-MEL melanoma = system: M19-MEL melanoma
MALME-3M melanoma = system: MALME-3M melanoma
MOLT-4 leukemia = system: MOLT-4 leukemia
NCI-H226 lung = system: NCI-H226 lung
NCI-H23 lung = system: NCI-H23 lung
NCI-H460 lung = system: NCI-H460 lung
NCI-H522 lung = system: NCI-H522 lung
OVCAR-3 ovarian = system: OVCAR-3 ovarian
OVCAR-4 ovarian = system: OVCAR-4 ovarian
OVCAR-5 ovarian = system: OVCAR-5 ovarian
OVCAR-8 ovarian = system: OVCAR-8 ovarian
RPMI-8226 leukemia = system: RPMI-8226 leukemia
RXF 393 renal = system: RXF 393 renal
RXF-631 renal = system: RXF-631 renal
SF-295 CNS = system: SF-295 CNS
SF-539 CNS = system: SF-539 CNS
SK-MEL-2 melanoma = system: SK-MEL-2 melanoma
SK-MEL-28 melanoma = system: SK-MEL-28 melanoma
SK-MEL-5 melanoma = system: SK-MEL-5 melanoma
SK-OV-3 ovarian = system: SK-OV-3 ovarian
SN12C renal = system: SN12C renal
SNB-19 CNS = system: SNB-19 CNS
SNB-75 CNS = system: SNB-75 CNS
SR leukemia = system: SR leukemia
SW-620 colon = system: SW-620 colon
TK-10 renal = system: TK-10 renal
U251 CNS = system: U251 CNS
UACC-257 melanoma = system: UACC-257 melanoma
UACC-62 melanoma = system: UACC-62 melanoma
UO-31 renal = system: UO-31 renal
XF 498 CNS = system: XF 498 CNS
A498 renal = system: A498 renal
CAKI-1 renal = system: CAKI-1 renal
SF-268 CNS = system: SF-268 CNS
SNB-78 CNS = system: SNB-78 CNS

COC(=O)c1sc(=O)n(-c2ccccc2)c1SCc1ccccc1
TGI (786-0 renal): > 100000 nM | TGI (A549 NSCLC): > 100000 nM | TGI (ACHN renal): > 100000 nM | TGI (CCRF-CEM leukemia): > 100000 nM | TGI (COLO 205 colon): > 100000 nM | TGI (DLD-1 colon): > 100000 nM | TGI (DMS 273 small cell lung): > 100000 nM | TGI (EKVX NSCLC): > 100000 nM | TGI (HCC-2998 colon): > 100000 nM | TGI (HCT-116 colon): > 100000 nM | TGI (HCT-15 colon): > 100000 nM | TGI (HL-60(TB) leukemia): > 100000 nM | TGI (HOP-18 NSCLC): > 100000 nM | TGI (HOP-62 NSCLC): > 100000 nM | TGI (HOP-92 NSCLC): > 100000 nM | TGI (HT29 colon): > 100000 nM | TGI (IGROV1 ovarian): > 100000 nM | TGI (K-562 leukemia): > 100000 nM | TGI (KM12 colon): > 100000 nM | TGI (KM20L2 colon): > 100000 nM | TGI (LOX IMVI melanoma): > 100000 nM | TGI (LXFL 529 NSCLC): > 100000 nM | TGI (M14 melanoma): > 100000 nM | TGI (M19-MEL melanoma): > 100000 nM | TGI (MALME-3M melanoma): > 100000 nM | TGI (MOLT-4 leukemia): > 100000 nM | TGI (NCI-H226 lung): > 100000 nM | TGI (NCI-H23 lung): > 100000 nM | TGI (NCI-H460 lung): > 100000 nM | TGI (NCI-H522 lung): > 100000 nM | TGI (OVCAR-3 ovarian): > 100000 nM | TGI (OVCAR-4 ovarian): > 100000 nM | TGI (OVCAR-5 ovarian): > 100000 nM | TGI (OVCAR-8 ovarian): > 100000 nM | TGI (RPMI-8226 leukemia): > 100000 nM | TGI (RXF 393 renal): > 100000 nM | TGI (RXF-631 renal): > 100000 nM | TGI (SF-295 CNS): > 100000 nM | TGI (SF-539 CNS): > 100000 nM | TGI (SK-MEL-2 melanoma): > 100000 nM | TGI (SK-MEL-28 melanoma): > 100000 nM | TGI (SK-MEL-5 melanoma): > 100000 nM | TGI (SK-OV-3 ovarian): > 100000 nM | TGI (SN12C renal): > 100000 nM | TGI (SNB-19 CNS): > 100000 nM | TGI (SNB-75 CNS): > 100000 nM | TGI (SR leukemia): > 100000 nM | TGI (SW-620 colon): > 100000 nM | TGI (TK-10 renal): > 100000 nM | TGI (U251 CNS): > 100000 nM | TGI (UACC-257 melanoma): > 100000 nM | TGI (UACC-62 melanoma): > 100000 nM | TGI (UO-31 renal): > 100000 nM | TGI (XF 498 CNS): > 100000 nM

CC[C@@]1(O)C(=O)OCc2c1cc1n(c2=O)Cc2cc3c([N+](=O)[O-])c(OC)ccc3nc2-1
GI50 (786-0 renal): < 11.5 nM | TGI (786-0 renal): 67.2 nM | GI50 (A498 renal): 184 nM | TGI (A498 renal): 855 nM | GI50 (A549 NSCLC): 34.3 nM | TGI (A549 NSCLC): 2610 nM | GI50 (ACHN renal): < 10 nM | TGI (ACHN renal): 64.8 nM | GI50 (CAKI-1 renal): 17.2 nM | TGI (CAKI-1 renal): 582 nM | GI50 (CCRF-CEM leukemia): < 10 nM | TGI (CCRF-CEM leukemia): 34.9 nM | GI50 (COLO 205 colon): 529 nM | TGI (COLO 205 colon): 2640 nM | GI50 (DLD-1 colon): 1540 nM | TGI (DLD-1 colon): > 100000 nM | GI50 (DMS 273 small cell lung): < 10 nM | TGI (DMS 273 small cell lung): 377 nM | GI50 (EKVX NSCLC): 3030 nM | TGI (EKVX NSCLC): > 77500 nM | GI50 (HCC-2998 colon): 359 nM | TGI (HCC-2998 colon): 2140 nM | GI50 (HCT-116 colon): 121 nM | TGI (HCT-116 colon): 1500 nM | GI50 (HCT-15 colon): 386 nM | TGI (HCT-15 colon): 3710 nM | GI50 (HL-60(TB) leukemia): 23.6 nM | TGI (HL-60(TB) leukemia): 196 nM | GI50 (HOP-18 NSCLC): 81.6 nM | TGI (HOP-18 NSCLC): 1980 nM | GI50 (HOP-62 NSCLC): < 10 nM | GI50 (HOP-92 NSCLC): 375 nM | TGI (HOP-92 NSCLC): 2940 nM | GI50 (HT29 colon): 224 nM | TGI (HT29 colon): > 100000 nM | GI50 (IGROV1 ovarian): 272 nM | TGI (IGROV1 ovarian): 2320 nM | GI50 (K-562 leukemia): 168 nM | TGI (K-562 leukemia): > 20400 nM | GI50 (KM12 colon): 514 nM | TGI (KM12 colon): 6120 nM | GI50 (KM20L2 colon): 262 nM | TGI (KM20L2 colon): 5950 nM | GI50 (LOX IMVI melanoma): 19.4 nM | TGI (LOX IMVI melanoma): 183 nM | GI50 (LXFL 529 NSCLC): 1430 nM | TGI (LXFL 529 NSCLC): 8420 nM | GI50 (M14 melanoma): 44.5 nM | TGI (M14 melanoma): 635 nM | TGI (M19-MEL melanoma): 1600 nM | GI50 (MALME-3M melanoma): 374 nM | TGI (MALME-3M melanoma): 3090 nM | GI50 (MOLT-4 leukemia): < 10 nM | TGI (MOLT-4 leukemia): 83.5 nM | GI50 (NCI-H226 lung): 274 nM | GI50 (NCI-H23 lung): 15.5 nM | TGI (NCI-H23 lung): 175 nM | GI50 (NCI-H460 lung): < 10 nM | TGI (NCI-H460 lung): 118 nM | GI50 (NCI-H522 lung): 71.4 nM | TGI (NCI-H522 lung): 2160 nM | GI50 (OVCAR-3 ovarian): 424 nM | TGI (OVCAR-3 ovarian): 1340 nM | GI50 (OVCAR-4 ovarian): 574 nM | TGI (OVCAR-4 ovarian): 3020 nM | GI50 (OVCAR-5 ovarian): 64.9 nM | TGI (OVCAR-5 ovarian): 629 nM | GI50 (OVCAR-8 ovarian): 103 nM | TGI (OVCAR-8 ovarian): 19000 nM | GI50 (RPMI-8226 leukemia): 1380 nM | TGI (RPMI-8226 leukemia): 14500 nM | GI50 (RXF 393 renal): 120 nM | TGI (RXF 393 renal): 831 nM | GI50 (RXF-631 renal): 311 nM | TGI (RXF-631 renal): 4580 nM | GI50 (SF-268 CNS): 17.7 nM | TGI (SF-268 CNS): > 31800 nM | GI50 (SF-295 CNS): 10.1 nM | TGI (SF-295 CNS): 263 nM | GI50 (SF-539 CNS): < 12.2 nM | TGI (SF-539 CNS): 121 nM | GI50 (SK-MEL-2 melanoma): 968 nM | TGI (SK-MEL-2 melanoma): 2610 nM | GI50 (SK-MEL-28 melanoma): 544 nM | TGI (SK-MEL-28 melanoma): 8160 nM | GI50 (SK-MEL-5 melanoma): 119 nM | TGI (SK-MEL-5 melanoma): 285 nM | GI50 (SK-OV-3 ovarian): 48.1 nM | TGI (SK-OV-3 ovarian): 2490 nM | GI50 (SN12C renal): < 10 nM | TGI (SN12C renal): 433 nM | GI50 (SNB-19 CNS): 59.4 nM | TGI (SNB-19 CNS): 22200 nM | GI50 (SNB-75 CNS): 35 nM | TGI (SNB-75 CNS): 405 nM | GI50 (SNB-78 CNS): 2200 nM | TGI (SNB-78 CNS): > 65300 nM | GI50 (SR leukemia): < 10 nM | GI50 (SW-620 colon): 171 nM | TGI (SW-620 colon): 2550 nM | GI50 (TK-10 renal): 3580 nM | TGI (TK-10 renal): 55600 nM | GI50 (U251 CNS): < 10 nM | TGI (U251 CNS): 230 nM | GI50 (UACC-257 melanoma): 293 nM | TGI (UACC-257 melanoma): 2230 nM | GI50 (UACC-62 melanoma): < 10 nM | TGI (UACC-62 melanoma): 134 nM | GI50 (UO-31 renal): 84.5 nM | TGI (UO-31 renal): 595 nM | GI50 (XF 498 CNS): 508 nM | TGI (XF 498 CNS): 5070 nM
